Tests used:
E11.5 kidney rudiments = experiment: Embryonic kidney organ culture, branching morphogenesis; set-up: species or system mouse; details: 48 h, highest dose
Pax2 = Pax2 (Mus musculus, UniProt P32114); experiment: PRS4-EGFP reporter, Western blot of EGFP; type: cell-based; details: PRS4-EGFP cells, increasing concentrations
Pax8 = Pax8 (Homo sapiens, UniProt Q06710); experiment: PRS4-Luc reporter activation by Pax8 in HEK293 cells; type: cell-based; details: dose response
CMV-Luc = CMV-Luc counter-screen in HEK293 cells; type: cell-based; details: increasing concentrations
[1] = system: RCC111, TOV112D and ES-2 cells; experiment: Phospho-histone H3 Western blot, Pax2 positive cancer cell lines; type: cell-based; details: increasing amounts
[2] = system: RCC111, TOV112D and ES-2 cells; experiment: Cell viability; type: cell-based; details: 48 h, 12.5 and 25 µM, Pax2 positive cells
[3] = system: BRE-Luc (P-Smad mediated transactivation); experiment: BMP dependent luciferase reporter; type: cell-based; details: HEK293 cells, in the presence of BMP4, increasing amounts
Pax5 = Pax5 (Homo sapiens, UniProt Q02548); experiment: PRS4-Luc reporter activation by Pax5 in HEK293 cells; type: cell-based; details: dose response
[4] = target: recombinant Pax2 paired domain (amino acids 1–170) / PRS oligo (Mus musculus, UniProt P32114); experiment: Electrophoretic mobility shift assay; type: biochemical; details: EMSA
kidney organ cultures = experiment: Pax2 target gene expression in kidney organ cultures; set-up: species or system mouse; details: kidney organ culture, 48 h
[5] = system: 22Rv1, PC-3 and SK-OV-3 cells; experiment: Cell viability; type: cell-based; details: 48 h, 12.5 and 25 µM, Pax2 negative cells
E11.5 lung rudiments = experiment: Embryonic lung organ culture, branching morphogenesis; set-up: species or system mouse; details: 48 h, increasing concentrations
[6] = system: 22Rv1, PC-3 and SK-OV-3 cells; experiment: Phospho-histone H3 Western blot, Pax2 negative cancer cell lines; type: cell-based; details: increasing amounts

Sequence of recombinant Pax2 paired domain (amino acids 1–170) / PRS oligo (P32114 1-170): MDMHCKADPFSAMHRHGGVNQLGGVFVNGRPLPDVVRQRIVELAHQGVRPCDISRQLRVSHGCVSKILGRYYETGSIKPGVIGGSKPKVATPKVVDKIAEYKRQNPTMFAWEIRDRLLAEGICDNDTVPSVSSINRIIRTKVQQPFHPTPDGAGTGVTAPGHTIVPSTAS
Sequence of Pax2 (P32114 1-391 isoform P32114-2): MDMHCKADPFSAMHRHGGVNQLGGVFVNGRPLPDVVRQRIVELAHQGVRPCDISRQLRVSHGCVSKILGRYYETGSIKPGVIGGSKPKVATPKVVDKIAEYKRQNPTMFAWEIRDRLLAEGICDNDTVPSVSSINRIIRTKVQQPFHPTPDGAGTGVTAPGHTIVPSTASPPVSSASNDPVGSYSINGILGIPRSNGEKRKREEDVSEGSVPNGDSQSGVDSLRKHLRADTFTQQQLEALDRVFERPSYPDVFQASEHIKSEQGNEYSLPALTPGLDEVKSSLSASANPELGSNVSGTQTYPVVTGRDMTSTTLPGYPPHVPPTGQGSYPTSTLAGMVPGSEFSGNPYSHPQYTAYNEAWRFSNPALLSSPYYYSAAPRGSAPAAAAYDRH
Sequence of Pax8 (Q06710 whole entry, species assumed): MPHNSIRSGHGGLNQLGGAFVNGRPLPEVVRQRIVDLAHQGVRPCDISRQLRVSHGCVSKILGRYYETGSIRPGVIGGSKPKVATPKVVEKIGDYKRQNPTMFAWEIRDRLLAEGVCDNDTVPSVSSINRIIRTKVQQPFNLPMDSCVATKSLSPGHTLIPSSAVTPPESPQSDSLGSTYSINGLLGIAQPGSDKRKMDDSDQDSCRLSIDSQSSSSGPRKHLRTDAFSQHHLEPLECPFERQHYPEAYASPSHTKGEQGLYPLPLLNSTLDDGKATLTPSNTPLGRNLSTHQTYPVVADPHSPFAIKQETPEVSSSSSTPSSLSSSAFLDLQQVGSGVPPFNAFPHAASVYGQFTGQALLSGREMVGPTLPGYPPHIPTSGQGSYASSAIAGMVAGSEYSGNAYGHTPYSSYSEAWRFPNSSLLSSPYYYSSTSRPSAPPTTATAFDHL
Sequence of Pax5 (Q02548 whole entry, species assumed, the tested form may be a part): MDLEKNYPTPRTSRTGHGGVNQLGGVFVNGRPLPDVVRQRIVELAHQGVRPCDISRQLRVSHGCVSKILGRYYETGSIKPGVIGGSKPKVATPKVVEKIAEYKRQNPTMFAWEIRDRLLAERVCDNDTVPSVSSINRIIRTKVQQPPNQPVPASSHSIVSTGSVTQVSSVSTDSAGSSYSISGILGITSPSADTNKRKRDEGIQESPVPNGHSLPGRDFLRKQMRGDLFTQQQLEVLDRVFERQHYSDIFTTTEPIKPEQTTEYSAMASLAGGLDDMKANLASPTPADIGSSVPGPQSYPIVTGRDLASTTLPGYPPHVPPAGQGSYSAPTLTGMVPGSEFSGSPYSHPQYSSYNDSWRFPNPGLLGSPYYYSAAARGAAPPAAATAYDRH

## COc1ccccc1C(=O)Nc1ccc(C(=O)Nc2ccccc2C(=O)O)cc1 [EG1]
E11.5 kidney rudiments
  Inhibition of branching morphogenesis: up to 75%
Pax2
  Inhibition of Pax2 mediated expression of EGFP: capable of inhibiting Pax2 mediated expression of EGFP
Pax8
  Inhibition of PRS4-Luc activation by Pax8: able to inhibit
CMV-Luc
  Inhibition of CMV-Luc in the counter-screen: no inhibitory effect
[1]
  Levels of phospho–histone H3 (P–H3): decreased levels of P–H3
[2]
  Cell viability: significant decrease in cell viability
[3]
  Effect on BRE-Luc reporter activity: unaffected
Pax5
  Inhibition of PRS4-Luc activation by Pax5: able to inhibit
[4]; 10 µM
  Inhibition of Pax2-DNA binding: Significant inhibition
[4]; 100 µM
  Inhibition of Pax2-DNA binding: near complete inhibition
Kidney organ cultures
  Cited1 and HNF4a expression, qRT-PCR: clear reduction
  Cited1 expression, whole mount in situ hybridization: dramatic reduction in expression levels
  FoxD1, Msx1 and Twist2 (stromal genes) expression, qRT-PCR: increased levels
[5]
  Cell viability: none of the Pax2 negative cells were affected
E11.5 lung rudiments
  Effect on branching morphogenesis: no change in branching morphogenesis
[6]
  Levels of phospho–histone H3 (P–H3): unchanged
